The term EC50 denotes the concentration giving half of the maximal effect. A high value points to a less potent agent.

Experiment [1] concerns the target T1, human M2 receptor (Homo sapiens, UniProt P08172).
T1 sequence (P08172 1-466): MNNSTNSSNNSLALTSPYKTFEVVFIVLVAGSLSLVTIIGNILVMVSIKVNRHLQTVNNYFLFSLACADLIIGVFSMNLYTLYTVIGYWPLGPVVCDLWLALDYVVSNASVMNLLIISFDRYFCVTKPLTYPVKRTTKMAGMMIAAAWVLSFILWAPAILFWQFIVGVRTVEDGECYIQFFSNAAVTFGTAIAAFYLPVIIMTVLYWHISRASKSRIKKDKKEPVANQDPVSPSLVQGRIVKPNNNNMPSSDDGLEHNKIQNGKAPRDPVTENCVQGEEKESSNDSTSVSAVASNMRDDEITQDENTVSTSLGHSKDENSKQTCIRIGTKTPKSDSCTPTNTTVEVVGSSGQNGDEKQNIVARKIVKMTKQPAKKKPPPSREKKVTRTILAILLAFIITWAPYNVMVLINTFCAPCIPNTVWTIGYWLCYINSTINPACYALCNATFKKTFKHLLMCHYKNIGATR
It is filed as cell-based. The following applies: shift in the acetylcholine dose-response curve (Allosteric EC50 shift, GraphPad PRISM); α >1 = positive cooperativity.

Experiment [2] concerns the target T1, human M2 receptor. To be noted: for EC50: Receptor activity EC50, M2-GIRK1/4 activation test, acetylcholine at EC20, allosteric potency, in some cases mean values from two or more determinations.

For the compound `CC(C)(C)C(NC(=O)c1cn(-c2c(F)cc(F)cc2F)c2nc(N3CCNC3=O)ccc2c1=O)C(F)(F)F` (stereo in doubt) [Example 360, 4-Oxo-7-(2-oxoimidazolidin-1-yl)-N-[(2S)-1,1,1-trifluoro-3,3-dimethylbutan-2-yl]-1-(2,4,6-trifluorophenyl)-1,4-dihydro-1,8-naphthyridine-3-carboxamide], on human M2 receptor [1], the “Cooperativity (alpha factor)” value was 36. This compound had an EC50 at human M2 receptor [2] of 6 nM.
For `O=C(NC12CC3CC(CC(C3)C1)C2)c1cn(-c2ccc(F)cc2F)c2nc(N3CC4C(C3)C4(F)F)ccc2c1=O` (stereo not shown) [Example 2, 7-(6,6-Difluoro-3-azabicylco[3.1.0]hex-3-yl)-1-(2,4-difluorophenyl)-4-oxo-N-(tricyclo[3.3.1.1^3,7]dec-1-yl)-1,4-dihydro-1,8-naphthyridine-3-carboxamide], in that order: 24 and 17 nM.
As for `O=C(NC12CC3CC(CC(C3)C1)C2)c1cn(-c2ccc(F)cc2F)c2nc(N3CC[C@@H](F)[C@H](O)C3)ccc2c1=O` [Example 3, 1-(2,4-Difluorophenyl)-7-[(3R,4R)-4-fluoro-3-hydroxypiperidin-1-yl]-4-oxo-N-(tricyclo[3.3.1.1^3,7]dec-1-yl)-1,4-dihydro-1,8-naphthyridine-3-carboxamide], the “Cooperativity (alpha factor)” value at human M2 receptor [1] was 30. Also, a half-maximal effect at human M2 receptor [2] (EC50) was put at 17 nM.
With `COC(=O)N1CCN(c2ccc3c(=O)c(C(=O)NC45CC6CC(CC(C6)C4)C5)cn(-c4ccc(F)cc4F)c3n2)CC1` [Example 4, Methyl 4-[8-(2,4-difluorophenyl)-5-oxo-6-(tricyclo[3.3.1.1^3,7]dec-1-ylcarbamoyl)-5,8-dihydro-1,8-naphthyridin-2-yl]piperazine-1-carboxylate], on human M2 receptor [1], the “Cooperativity (alpha factor)” value turned out to be 30. At human M2 receptor [2], the EC50 came out at 24 nM.
Take `O=C(NC12CC3CC(CC(C3)C1)C2)c1cn(-c2ccc(F)cc2F)c2nc(N3CCC(O)(O)C(F)(F)C3)ccc2c1=O` [Example 6, 7-(3,3-Difluoro-4,4-dihydroxypiperidin-1-yl)-1-(2,4-difluorophenyl)-4-oxo-N-(tricyclo[3.3.1.1^3,7]dec-1-yl)-1,4-dihydro-1,8-naphthyridine-3-carboxamide]: the “Cooperativity (alpha factor)” value at human M2 receptor [1] amounted to 15. The EC50 at human M2 receptor [2] was found to be 34 nM.
The like results for `O=C(NC12CC3CC(CC(C3)C1)C2)c1cn(-c2ccc(F)cc2F)c2nc(N3CCC(O)(O)[C@H](F)C3)ccc2c1=O` [Example 7, 1-(2,4-Difluorophenyl)-7-[(3R)-3-fluoro-4,4-dihydroxypiperidin-1-yl]-4-oxo-N-(tricyclo[3.3.1.1^3,7]dec-1-yl)-1,4-dihydro-1,8-naphthyridine-3-carboxamide] were, in that order, 34 and 34 nM.
The like results for `N#CC1CCCN(c2ccc3c(=O)c(C(=O)NC45CC6CC(CC(C6)C4)C5)cn(-c4ccc(F)cc4F)c3n2)C1` (stereo not shown) [Example 10, 7-(3-Cyanopiperidin-1-yl)-1-(2,4-difluorophenyl)-4-oxo-N-(tricyclo[3.3.1.1^3,7]dec-1-yl)-1,4-dihydro-1,8-naphthyridine-3-carboxamide] were, in that order, 12 and 60 nM.
The like results for `C[C@@H]1C[C@H](F)CN1c1ccc2c(=O)c(C(=O)NC34CC5CC(CC(C5)C3)C4)cn(-c3ccc(F)cc3F)c2n1` [Example 11, 1-(2,4-Difluorophenyl)-7-[(2R,4S)-4-fluoro-2-methylpyrrolidin-1-yl]-4-oxo-N-(tricyclo[3.3.1.1^3,7]dec-1-yl)-1,4-dihydro-1,8-naphthyridine-3-carboxamide] were, in that order, 10 and 61 nM.
In the case of `O=C(NC12CC3CC(CC(C3)C1)C2)c1cn(-c2ccc(F)cc2F)c2nc(N3CCC4(C3)CC4(F)F)ccc2c1=O` (stereo not shown) [Example 13, 7-(1,1-Difluoro-5-azaspiro[2.4]hept-5-yl)-1-(2,4-difluorophenyl)-4-oxo-N-(tricyclo[3.3.1.1^3,7]dec-1-yl)-1,4-dihydro-1,8-naphthyridine-3-carboxamide], the “Cooperativity (alpha factor)” value at human M2 receptor [1] was found to be 6. In addition, the EC50 at human M2 receptor [2] was 71 nM.
With `O=C(NC12CC3CC(CC(C3)C1)C2)c1cn(-c2ccc(F)cc2F)c2nc(N3CCCC[C@H]3CO)ccc2c1=O` [Example 15, 1-(2,4-Difluorophenyl)-7-[(2S)-2-(hydroxymethyl)piperidin-1-yl]-4-oxo-N-(tricyclo[3.3.1.1^3,7]dec-1-yl)-1,4-dihydro-1,8-naphthyridine-3-carboxamide], the “Cooperativity (alpha factor)” value on human M2 receptor [1] is 8. Further, at human M2 receptor [2], the response was half-maximal at 85 nM (EC50).
The like results for `CO[C@@H]1CCN(c2ccc3c(=O)c(C(=O)NC45CCC(C)(CC4)CC5)cn(-c4ccc(F)cc4F)c3n2)C1` [Example 19, 1-(2,4-Difluorophenyl)-7-[(3R)-3-methoxypyrrolidin-1-yl]-N-(4-methylbicyclo[2.2.2]oct-1-yl)-4-oxo-1,4-dihydro-1,8-naphthyridine-3-carboxamide] were, in that order, 12 and 58 nM.
For `CC12CCC(NC(=O)c3cn(-c4ccc(F)cc4F)c4nc(N5CC[C@@H](O)C5)ccc4c3=O)(CC1)CC2` [Example 20, 1-(2,4-Difluorophenyl)-7-[(3R)-3-hydroxypyrrolidin-1-yl]-N-(4-methylbicyclo[2.2.2]oct-1-yl)-4-oxo-1,4-dihydro-1,8-naphthyridine-3-carboxamide], in that order: 34 and 42 nM.
For `CC[C@@H](NC(=O)c1cn(-c2ccc(F)cc2F)c2nc(NCCF)ccc2c1=O)C(F)(F)F` [Example 27, 1-(2,4-Difluorophenyl)-7-[(2-fluoroethyl)amino]-4-oxo-N-[(2R)-1,1,1-trifluorobutan-2-yl]-1,4-dihydro-1,8-naphthyridine-3-carboxamide], in that order: 20 and 89 nM.
With `CC[C@@H](NC(=O)c1cn(-c2ccc(F)cc2F)c2nc(N3C[C@@H](F)C[C@H]3C)ccc2c1=O)C(F)(F)F` [Example 31, 1-(2,4-Difluorophenyl)-7-[(2R,4S)-4-fluoro-2-methylpyrrolidin-1-yl]-4-oxo-N-[(2R)-1,1,1-trifluorobutan-2-yl]-1,4-dihydro-1,8-naphthyridine-3-carboxamide], the “Cooperativity (alpha factor)” value on human M2 receptor [1] is listed as 13. The EC50 on human M2 receptor [2] was 40 nM.
For `CC[C@@H](NC(=O)c1cn(-c2ccc(F)cc2F)c2nc(N3CC[C@@H](F)[C@H](O)C3)ccc2c1=O)C(F)(F)F` [Example 33, 1-(2,4-Difluorophenyl)-7-[(3R,4R)-4-fluoro-3-hydroxypiperidin-1-yl]-4-oxo-N-[(2R)-1,1,1-trifluorobutan-2-yl]-1,4-dihydro-1,8-naphthyridine-3-carboxamide], in that order: 20 and 91 nM.
For `CC[C@@H](NC(=O)c1cn(-c2ccc(F)cc2F)c2nc(N3CCC(O)(O)C(F)(F)C3)ccc2c1=O)C(F)(F)F` [Example 35, 7-(3,3-Difluoro-4,4-dihydroxypiperidin-1-yl)-1-(2,4-difluorophenyl)-4-oxo-N-[(2R)-1,1,1-trifluorobutran-2-yl]-1,4-dihydro-1,8-naphthyridine-3-carboxamide], in that order: 24 and 62 nM.
As for `CN(C)c1ccc2c(=O)c(C(=O)NC34CC5CC(CC(C5)C3)C4)cn(-c3ccc(F)cc3F)c2n1` [Example 36, 1-(2,4-Difluorophenyl)-7-(dimethylamino)-4-oxo-N-(tricyclo[3.3.1.1^3,7]dec-1-yl)-1,4-dihydro-1,8-naphthyridine-3-carboxamide], at human M2 receptor [1], the “Cooperativity (alpha factor)” value was 16. The same compound had an EC50 at human M2 receptor [2] of 19 nM. At human M2 receptor [2] (read-out: Efficiency), the Emax came to 96.1%.
Regarding `CN(C)c1ccc2c(=O)c(C(=O)NC34CC5CC(F)(CC(F)(C5)C3)C4)cn(-c3ccc(F)cc3F)c2n1` [Example 38, 1-(2,4-Difluorophenyl)-N-(3,5-difluorotricyclo[3.3.1.1^3,7]dec-1-yl)-7-(dimethylamino)-4-oxo-1,4-dihydro-1,8-naphthyridine-3-carboxamide], the “Cooperativity (alpha factor)” value at human M2 receptor [1] was determined as 14. On human M2 receptor [2], this compound displayed an EC50 of 41 nM.
For `CN(C)c1ccc2c(=O)c(C(=O)NC34CC5CC(C3)C(F)(F)C(C5)C4)cn(-c3ccc(F)cc3F)c2n1` [Example 39, 1-(2,4-Difluorophenyl)-N-(4,4-difluorotricyclo[3.3.1.1^3,7]dec-1-yl)-7-(dimethylamino)-4-oxo-1,4-dihydro-1,8-naphthyridine-3-carboxamide], in that order: 14 and 88 nM.
For `C[C@H](NC(=O)c1cn(-c2ccc(F)cc2F)c2nc(N(C)C)ccc2c1=O)C(F)(F)F` [Example 44, 1-(2,4-Difluorophenyl)-7-(dimethylamino)-4-oxo-N-[(2S)-1,1,1-trifluoropropan-2-yl]-1,4-dihydro-1,8-naphthyridine-3-carboxamide], in that order: 12 and 111 nM.
For `CN(C)c1ccc2c(=O)c(C(=O)Nc3ccccc3C(F)(F)F)cn(-c3ccc(F)cc3F)c2n1` [Example 57, 1-(2,4-Difluorophenyl)-7-(dimethylamino)-4-oxo-N-[2-(trifluoromethyl)phenyl]-1,4-dihydro-1,8-naphthyridine-3-carboxamide], in that order: 7 and 82 nM.

For the origin of these results see US20190367516A1 (Bayer Pharma Aktiengesellschaft, priority 2015, published 2019).
